# Assay results published in the supplement of paper PMC10307832.
# Tests used:
# Test in all cases: relative viability (nuclei count vs DMSO), 5 days (fraction); higher = more cells survive
# IPA-3 + Bortezomib = compound: C1=CC=C2C(=C1)C=CC(=C2SSC3=C(C=CC4=CC=CC=C43)O)O [IPA-3] + CC(C)C[C@H](NC(=O)[C@H](Cc1ccccc1)NC(=O)c1cnccn1)B(O)O [Bortezomib] (partner 0.002 µM)
# Outline: (§1)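 Lung cancer cell lines were seeded in 1536-well plates and dosed by pin tool the next day, with either a single drug or a fixed anchor-drug dose combined with five library-drug doses (not always all listed) spaced in √10 steps. Five days later, one step fixed the cells and stained their nuclei (final 0.05% Triton X-100, 1% formaldehyde, 1 ug/ml Hoechst), and nuclei were counted on 4× images. Relative viability is the nuclei count in treated wells divided by the count in vehicle wells, and each value is the median of duplicate plates.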
# RAF265 + Pemetrexed = compound: Cn1c(Nc2ccc(C(F)(F)F)cc2)nc2cc(Oc3ccnc(-c4ncc(C(F)(F)F)[nH]4)c3)ccc21 [RAF265] + Nc1nc2[nH]cc(CCc3ccc(C(=O)N[C@@H](CCC(=O)O)C(=O)O)cc3)c2c(=O)[nH]1 [Pemetrexed] (partner 0.2 µM)
# Outline: as §1
# [1] = compound: Cc1ccc(-n2nc(C(C)(C)C)cc2NC(=O)Nc2ccc(OCCN3CCOCC3)c3ccccc23)cc1 [Doramapimod] + CC(=O)c1c(C)c2cnc(Nc3ccc(N4CCNCC4)cn3)nc2n(C2CCCC2)c1=O [Palbociclib] (partner 0.5 µM)
# Outline: as §1
# IPA-3 + Linsitinib = compound: C1=CC=C2C(=C1)C=CC(=C2SSC3=C(C=CC4=CC=CC=C43)O)O [IPA-3] + C[C@]1(O)C[C@@H](c2nc(-c3ccc4ccc(-c5ccccc5)nc4c3)c3c(N)nccn32)C1 [Linsitinib] (partner 1 µM)
# Outline: as §1
Cell Line,relative viability (IPA-3 + Bortezomib; first compound 0.2 µM),relative viability (IPA-3 + Bortezomib; first compound 0.6325 µM),relative viability (IPA-3 + Bortezomib; first compound 2 µM),relative viability (IPA-3 + Bortezomib; first compound 6.325 µM),relative viability (IPA-3 + Bortezomib; first compound 20 µM),relative viability (RAF265 + Pemetrexed; first compound 0.01 µM),relative viability (RAF265 + Pemetrexed; first compound 0.03162 µM),relative viability (RAF265 + Pemetrexed; first compound 0.1 µM),relative viability (RAF265 + Pemetrexed; first compound 0.3162 µM),relative viability (RAF265 + Pemetrexed; first compound 1 µM),relative viability ([1]; first compound 0.02 µM),relative viability ([1]; first compound 0.06325 µM),relative viability ([1]; first compound 0.2 µM),relative viability ([1]; first compound 0.6325 µM),relative viability ([1]; first compound 2 µM),relative viability (IPA-3 + Linsitinib; first compound 0.2 µM),relative viability (IPA-3 + Linsitinib; first compound 0.6325 µM),relative viability (IPA-3 + Linsitinib; first compound 2 µM),relative viability (IPA-3 + Linsitinib; first compound 6.325 µM),relative viability (IPA-3 + Linsitinib; first compound 20 µM)
NCI-H1355,1.44,1.25,1.18,1.16,1.3,1.05,1.02,0.972,0.96,0.714,0.412,0.373,0.413,0.385,0.368,0.942,0.82,0.786,0.742,0.895
EKVX,1.31,0.995,1.12,0.988,1.54,0.373,0.44,0.456,0.255,0.358,0.427,0.351,0.366,0.337,0.342,1.1,1.06,1.05,0.97,1.43
NCI-H441,0.446,,0.285,0.734,0.589,0.267,0.251,0.258,0.223,0.224,0.197,0.221,0.203,0.191,0.219,0.568,0.568,0.611,0.541,0.515
NCI-H1975,0.373,0.375,0.387,0.421,0.481,0.307,0.256,0.234,0.203,0.19,0.583,0.576,0.488,0.596,0.512,1.06,1.01,1.02,1.03,1.09
HCC-78,0.624,0.359,0.555,0.479,0.675,0.906,0.844,0.884,0.881,0.898,0.469,0.511,0.505,0.509,0.568,0.569,0.597,0.454,0.583,0.635
NCI-H2085,1.19,0.99,1.01,0.937,1.27,1.09,0.768,0.938,0.806,0.903,0.525,0.527,0.5,0.52,0.529,0.923,0.954,0.856,0.992,1.21
H3255,0.818,0.709,0.601,0.754,0.846,0.569,0.609,0.54,,0.569,0.334,0.302,0.318,0.292,0.345,1.09,0.874,0.932,0.963,1.11
NCI-H2087,1.04,0.796,0.828,0.749,0.838,0.599,0.669,0.549,0.649,0.543,0.237,0.215,0.293,0.27,0.219,1.1,1.05,0.925,0.86,0.995
LC-2-ad,1,0.974,1.05,0.983,0.998,0.275,0.3,0.288,0.292,0.258,0.521,0.467,0.502,0.529,0.529,0.885,0.845,0.86,0.795,0.86
PC-3 [JPC-3],0.92,0.885,0.786,0.824,0.873,1.17,1.11,1.24,0.42,0.621,0.588,0.549,0.549,0.571,0.565,0.965,0.904,0.977,0.994,0.922
EBC-1,0.488,0.548,0.546,0.546,0.581,,,,,,,,,,,1.12,0.729,0.911,0.841,0.871
HCC-15,1.34,0.99,0.838,1.02,1.21,0.232,0.232,0.231,0.235,0.23,0.548,0.772,0.755,0.686,0.525,0.934,0.81,0.951,0.888,0.918
NCI-H1563,1.03,0.689,0.801,0.996,0.846,0.943,0.886,0.77,0.779,0.699,,,,,,1.31,1.24,1.32,1.34,1.3
COR-L 105,0.856,0.885,0.7,0.879,0.603,1.27,0.941,1.31,0.714,0.685,0.398,0.421,0.404,0.449,0.351,1.07,0.98,0.843,0.542,0.962
NCI-H520,1.13,0.769,0.536,0.684,0.487,0.637,0.536,0.629,0.507,0.36,0.214,0.222,0.21,0.213,0.214,1.02,0.951,1.03,0.855,0.982
LU99A,1.23,1.07,1.28,1.04,1.06,0.199,0.186,0.161,0.177,0.241,0.38,0.365,0.379,0.426,0.313,0.563,0.476,0.553,0.517,0.547
NCI-H1666,0.903,0.808,0.887,0.76,0.73,0.787,0.782,0.904,0.888,0.754,0.734,0.641,0.69,0.704,0.613,0.865,0.87,0.857,0.763,0.693
NCI-H2170,,,,,,0.245,0.258,0.263,0.261,0.251,0.381,0.421,0.413,0.387,0.377,,,,,
NCI-H2342,,,,,,0.809,0.818,0.782,0.803,0.788,0.523,0.585,0.632,0.524,0.535,,,,,
LCLC-97TM1,0.524,0.847,0.814,0.438,0.575,0.145,0.155,0.149,0.153,0.128,0.233,0.211,0.257,0.219,0.171,0.208,0.215,0.181,0.202,0.215

Cell Line,relative viability (IPA-3 + Bortezomib; first compound 0.2 µM),relative viability (IPA-3 + Bortezomib; first compound 0.6325 µM),relative viability (IPA-3 + Bortezomib; first compound 2 µM),relative viability (IPA-3 + Bortezomib; first compound 6.325 µM),relative viability (IPA-3 + Bortezomib; first compound 20 µM),relative viability (RAF265 + Pemetrexed; first compound 0.01 µM),relative viability (RAF265 + Pemetrexed; first compound 0.03162 µM),relative viability (RAF265 + Pemetrexed; first compound 0.1 µM),relative viability (RAF265 + Pemetrexed; first compound 0.3162 µM),relative viability (RAF265 + Pemetrexed; first compound 1 µM),relative viability ([1]; first compound 0.02 µM),relative viability ([1]; first compound 0.06325 µM),relative viability ([1]; first compound 0.2 µM),relative viability ([1]; first compound 0.6325 µM),relative viability ([1]; first compound 2 µM),relative viability (IPA-3 + Linsitinib; first compound 0.2 µM),relative viability (IPA-3 + Linsitinib; first compound 0.6325 µM),relative viability (IPA-3 + Linsitinib; first compound 2 µM),relative viability (IPA-3 + Linsitinib; first compound 6.325 µM),relative viability (IPA-3 + Linsitinib; first compound 20 µM)
NCI-H1299,0.995,1.01,0.996,0.996,1,,,,,,,,,,,1.16,0.99,0.942,0.946,0.999
NCI-H3122,0.994,1.01,1.03,1.13,0.938,0.197,0.21,0.198,0.209,0.195,0.18,0.176,0.191,0.2,0.213,1.05,1.01,0.961,1.08,1.05
NCI-H1395,,,,,,0.893,0.878,0.824,0.65,0.683,0.67,0.6,0.64,0.58,0.583,1.2,1.04,1.19,1.02,1.11
NCI-H1944,,,,,,0.849,0.859,0.632,0.405,0.472,0.321,0.306,0.322,0.307,0.271,1.2,1.12,1.23,1.48,1.3
Calu-6,1.02,1.04,0.895,0.959,0.837,,,,,,,,,,,1.14,0.937,0.878,0.952,0.958
NCI-H1703,0.265,0.288,0.463,0.579,0.445,,,,,,,,,,,1.1,0.39,0.974,0.787,1.05
NCI-H1650,0.223,0.193,0.186,0.283,0.27,0.336,0.362,0.431,0.324,0.369,0.411,0.363,0.428,0.425,0.35,,,,,
NCI-H727,0.841,0.788,0.857,0.866,1.12,,,,,,0.603,0.639,0.656,0.705,0.692,0.265,0.186,0.271,0.34,0.226
NCI-H1648,,,,,,0.758,0.66,0.771,1.02,0.65,0.262,0.293,0.248,0.249,0.234,,,,,
ChaGo-K-1,1.03,1.1,0.861,1.08,1.31,0.262,0.273,0.248,0.262,0.325,0.928,0.906,0.918,0.942,0.823,,,,,
NCI-H522,,,,,,0.922,1.15,1.09,1.13,1,1.02,1.04,1.03,0.954,0.817,,,,,
ABC-1,0.297,0.345,,0.295,0.257,,,,,,0.642,0.732,0.683,0.845,0.817,0.862,0.752,,0.715,1.06
SW 900,,,,,,0.486,0.512,0.512,0.488,0.254,0.57,0.537,0.558,0.584,0.531,,,,,
LK-2,,,,,,0.237,0.352,0.188,0.244,0.215,0.515,0.576,0.54,0.518,0.413,0.553,0.436,0.595,0.526,0.518
NCI-H596,1.33,1.12,1.18,0.914,1.17,0.565,0.504,0.474,0.538,0.448,,,,,,1.3,0.993,1.04,1.09,1.14
SK-MES-1,,,,,,0.941,0.698,0.48,0.366,0.326,0.316,0.288,0.341,0.316,0.269,1.13,1.01,1.07,1.07,1.02
NCI-H1793,,,,,,1.07,0.774,0.553,0.234,0.412,0.317,0.293,0.283,0.287,0.273,1.24,0.794,0.977,1.06,1.15
IA-LM,0.883,0.808,0.842,0.703,0.546,,,,,,,,,,,0.922,0.526,0.639,0.505,0.404
A549,,,,,,,,,,,,,,,,0.653,0.582,0.683,0.591,0.775
NCI-H358,,,,,,0.159,0.165,0.151,0.149,0.147,0.153,0.137,0.138,0.195,0.133,0.789,0.687,0.792,0.686,0.882
